Numbered stars: 1 amine (or outer) side, 2 acyl side, 3 side chain; on linkers, the order of the positions; unused ones are H or OH. Square brackets hold non-standard residues; d marks the D form. Peptide text beside a SMILES is read from it. * marks the point of attachment. EDDnp = O=[N+]([O-])c1ccc(NCCN*)c([N+](=O)[O-])c1; X1 = NCC1CCC(C[C@H](N[*:1])C(=O)[*:2])CC1; 2Abz = Nc1ccccc1C(=O)O
Assays:
[1] = biological target: T1, Kallikrein-1 (Homo sapiens, UniProt P06870); test: Inhibition of human KLK1 using Pro-Phe-Arg-MCA as substrate for 2 mins by spectrophotometric analysis
[2] = biological target: T2, Prostate-specific antigen (Homo sapiens, UniProt P07288); test: Inhibition of KLK3
T2 sequence (P07288 whole entry): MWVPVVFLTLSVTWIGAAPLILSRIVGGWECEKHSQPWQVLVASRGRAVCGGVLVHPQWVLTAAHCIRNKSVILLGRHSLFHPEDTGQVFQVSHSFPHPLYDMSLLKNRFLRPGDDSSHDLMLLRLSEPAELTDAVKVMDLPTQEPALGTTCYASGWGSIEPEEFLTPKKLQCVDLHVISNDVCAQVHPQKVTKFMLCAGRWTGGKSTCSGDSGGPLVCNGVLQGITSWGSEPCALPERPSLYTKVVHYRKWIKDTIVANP

[3] = biological target: T1, Kallikrein-1; test: Inhibition of human KLK1

T1 sequence (P06870 whole entry): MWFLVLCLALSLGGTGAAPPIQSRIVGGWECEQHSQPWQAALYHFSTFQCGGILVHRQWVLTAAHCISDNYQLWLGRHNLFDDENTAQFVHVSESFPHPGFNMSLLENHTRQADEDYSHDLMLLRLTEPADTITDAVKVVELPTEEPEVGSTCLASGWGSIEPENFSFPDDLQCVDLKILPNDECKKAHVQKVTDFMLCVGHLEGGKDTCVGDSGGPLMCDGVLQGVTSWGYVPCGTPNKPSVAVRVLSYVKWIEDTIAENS

Ki [2] [µM] | Ki [3] [µM] | SMILES | other results
0.3 | – | Cc1c(-c2nc3ccccc3c(=O)o2)cccc1[N+](=O)[O-] | –
0.5 | – | COc1ccc(C(=O)n2nc(-c3cccnc3)nc2C)cc1OC | –

The remaining lines, values behind:

SMILES | Ki [2] [µM] | Ki [3] [µM] | other results
CC(=O)N[C@H](CCCCN)C(=O)N[C@@H](Cc1ccccc1)C(=O)N[C@@H](Cc1ccccc1)C(=O)N1CCC[C@H]1C(=O)N[C@@H](CC(C)C)C(=O)N[C@@H](CCC(=O)O)C(N)=O | – | – | Ki [1]: 0.008 µM
N=C(N)NCCC[C@H](NC(=O)[C@H](CO)NC(=O)[C@H](CC1CCC(CN)CC1)NC(=O)[C@H](Cc1ccccc1)NC(=O)c1ccccc1N)C(=O)N[C@@H](CCC(N)=O)C(=O)NCCNc1ccc([N+](=O)[O-])cc1[N+](=O)[O-] (stereo not given in full) (H-[2Abz]F[X1]SRQ-EDDnp) | – | 0.05 | –
NC(=O)[C@H](CCCN=C(N)N)NC(=O)[C@H](CO)NC(=O)[C@H](CC1CCC(N)CC1)NC(=O)Cc1ccccc1 (mixture of isomers) | – | 0.11 | –

Reference: ChEMBL document CHEMBL2169752, “Kallikrein protease activated receptor (PAR) axis: an attractive target for drug development” (J Med Chem, 2012)
